The values below come from US4873236A, “Condensed diazepinones, processes for preparing them and pharmaceutical compositions containing these compounds” (Dr. Karl Thomae GmbH, priority 1986, dated 1989).

The structures appear in SMILES notation.

The target in assay [1] is T1, muscarinic receptors, lachrymal glands (Rattus norvegicus, UniProt P08483).
T1 construct: from tissue; host or cells: lachrymal glands of female rats, labelled in vivo
In words: Receptor bonding test in vivo, lachrymal glands (3H-NMS). The arrangement: species or system female rats. The note with it: iv, 0.5 h, in vivo binding, i.v., 113 ng/kg 3H-NMS, read-out: ID50 Lachrymal glands. Here is the method: (§1) For these experiments, female rats with a body weight of about 200 g were used. Before the start of the test the animals were anaesthetised with a dosage of 1.25 g/kg of urethane. The animals were each given the prescribed dosage of test substance by intravenous injection. After 15 minutes, 113 ng/kg of ^3 H-N-methylscopolamine (^3 H-NMS) were administered by the same route. After another 15 minutes the animals were killed and the heart, bronchi and lachrymal glands were removed. These organs were dissolved in Soluene R and the radioactivity was determined. The measurements were assumed to be total bonding. […] ID50 values were determined for the individual organs using these tests.

Assay [2] concerns the target T2, muscarinic receptors of the atrium (Cavia porcellus, UniProt H0VRN8).
T2 construct: In the isolated, spontaneously beating right atrium; from tissue; host or cells: isolated right atrium of guinea pig
T2 sequence (H0VRN8 1-466): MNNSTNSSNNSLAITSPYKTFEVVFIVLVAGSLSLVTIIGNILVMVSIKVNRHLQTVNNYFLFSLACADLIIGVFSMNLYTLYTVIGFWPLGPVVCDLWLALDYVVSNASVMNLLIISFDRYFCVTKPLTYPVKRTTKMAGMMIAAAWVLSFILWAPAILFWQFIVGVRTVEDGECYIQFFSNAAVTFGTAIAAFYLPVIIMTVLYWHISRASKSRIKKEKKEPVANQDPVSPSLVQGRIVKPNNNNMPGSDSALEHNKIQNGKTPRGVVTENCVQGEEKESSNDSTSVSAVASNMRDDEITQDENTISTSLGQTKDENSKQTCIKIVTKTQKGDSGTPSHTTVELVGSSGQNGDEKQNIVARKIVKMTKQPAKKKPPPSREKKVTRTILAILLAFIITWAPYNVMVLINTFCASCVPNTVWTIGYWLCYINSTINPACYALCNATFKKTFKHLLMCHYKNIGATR
Kind of assay: Dissociation constants (KB) on spontaneously beating right atrium, methacholine antagonism. The arrangement: species or system guinea pig. The note with it: guinea pig spontaneously beating atrium, methacholine, 30 min contact; read-out: KB Heart (dissociation constant). The protocol: Dissociation constants (KB values) were determined in vitro on the guinea pig ileum and spontaneously beating atrium. The ileum was removed and incubated in Krebs-Henseleit solution in an organ bath. Contractions were produced by means of increasing concentrations of methacholine (M) so that a full concentration-activity curve could be plotted. Then M was washed out, the test substance was added and kept in contact for 30 minutes and again a concentration-activity curve was plotted with M. The dissociation constant was calculated according to Arunlakshana and Schild (Brit. J. Pharmacol. 14, 48, 1959) from the dosage ratio (DR), i.e. the extent of displacement of the concentration-activity curve.
In the isolated, spontaneously beating right atrium M reduced the heart rate as a function of the concentration. This effect was stopped by the addition of an antimuscarinic. Dissociation constants for the muscarinic receptors of the atrium were obtained in the same way as described above. A comparison of the dissociation constants measured in the two different tissues made it possible to identify cardioselective substances.

Assay [3] concerns muscarinic receptors, bronchi. Kind of assay: Receptor bonding test in vivo, bronchi (3H-NMS). The arrangement: species or system female rats. The conditions noted are these: in vivo binding, i.v., rat, 113 ng/kg 3H-NMS; 30 min. Here is the method: as §1
Assay [4] deals with T3, muscarinic receptors, submandibular gland (Rattus norvegicus, UniProt P08483).
T3 construct: After removal of the heart and submandibular gland; from tissue; host or cells: submandibular gland of male Sprague-Dawley rats, homogenate
In words: Receptor bonding test in vitro, submandibular gland (displacement of 3H-N-methylscopolamine). It counts as binding, Sprague-Dawley rats. The conditions noted are these: 0.3 nmolar 3H-NMS, 30° C., 45 min.

T1 sequence (P08483 whole entry): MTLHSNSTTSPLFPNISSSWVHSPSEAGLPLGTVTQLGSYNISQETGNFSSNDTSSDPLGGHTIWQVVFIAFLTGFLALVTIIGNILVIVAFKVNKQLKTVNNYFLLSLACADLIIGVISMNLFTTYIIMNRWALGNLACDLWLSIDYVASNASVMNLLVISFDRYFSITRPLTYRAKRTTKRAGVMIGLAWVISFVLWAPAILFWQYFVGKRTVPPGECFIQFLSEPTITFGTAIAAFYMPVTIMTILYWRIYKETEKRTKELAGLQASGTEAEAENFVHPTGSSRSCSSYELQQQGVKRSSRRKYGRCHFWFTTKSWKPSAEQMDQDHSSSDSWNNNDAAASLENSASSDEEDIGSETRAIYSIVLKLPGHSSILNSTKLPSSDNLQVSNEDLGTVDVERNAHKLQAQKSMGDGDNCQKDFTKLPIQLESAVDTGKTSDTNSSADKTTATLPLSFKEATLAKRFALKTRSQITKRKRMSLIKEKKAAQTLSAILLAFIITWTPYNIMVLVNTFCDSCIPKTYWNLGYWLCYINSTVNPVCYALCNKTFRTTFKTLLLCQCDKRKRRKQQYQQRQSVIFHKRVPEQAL
T3 sequence (P08483 whole entry): as above

For the molecule `CCCN(CCC)CC1CCCCN1CCNC(=O)N1c2ccccc2C(=O)Nc2cccnc21` (stereo not shown) [Substance A, 5,11-dihydro-11-[[[2-[2-[(dipropylamino)methyl]-piperidin-1-yl]ethyl]amino]carbonyl]-6H-pyrido[2,3-b][1,4]benzodiazepin-6-one], the ED50 in assay [1] was greater than 10 mg/kg. Moreover, the Kb in assay [2] amounted to 2.45 nM. Besides, the “ID50 Bronchi” value in assay [3] turned out to be 0.7 mg/kg.
As for `CCN(CC)CC1CCCCN1CCNC(=O)N1c2ccccc2NC(=O)c2csc(C)c21` (stereo not shown) [Substance B, 4-[[[2-[2-[(diethylamino)methyl]-piperidin-1-yl]ethyl]amino]carbonyl]-4,9-dihydro-3-methyl-10H-thieno[3,4-b][1,5]benzodiazepin-10-one], the IC50 in assay [4] is 15 nM. Besides, the ED50 in assay [1] was greater than 1 mg/kg. The Kb in assay [2] stood at 0.24 nM. Besides, the “ID50 Bronchi” value in assay [3] was found to be 0.15 mg/kg.
`CCN(CC)CC1CCCCN1CCNC(=O)N1c2cc(Cl)ccc2C(=O)Nc2cccnc21` (stereo not shown) [Substance C, 9-chloro-11-[[[2-[2-[(diethylamino)methyl]-piperidin-1-yl]ethyl]amino]carbonyl]-5,11-dihydro-6H-pyrido[2,3-b][1,4]benzodiazepin-6-one] came in with an IC50 in assay [4] of 150 nM. The Kb in assay [2] came out at 4.9 nM. In addition, the “ID50 Bronchi” value in assay [3] stood at 3.0 mg/kg.
